{"source": "patent US4788069A", "about": "(The Coca-Cola Company, priority 1987, dated 1988)", "key": {"[1]": {"conditions": "cited from earlier work; for times sweeter than sucrose: prior art value, weight to weight stated for formula 1"}, "[2]": {"experiment": "Sweetness relative to sucrose, compounds tasted in aqueous solution", "conditions": "for Sweetness (x sucrose w/w): Table I, diastereomeric mixtures of L-aspartyl-3-(bicycloalkyl) D,L-alanine methyl esters", "method": "The 2R-endo- and 2R-exo-fenchyl esters described by Fujino, cited above, have sweetness of high intensity.\nIn Table I, the reported sweetness is measured for diastereomeric mixtures. The sweetness of each optically pure compound according to the invention will differ from the sweetness of the mixture.\nThe sweetness values of each compound shown in Table I correspond to a mixture of optical isomers, whose maximum theoretical number of isomers is listed. In order to evaluate the sweetness of different isomeric forms, four pairs of optical isomers of one of the novel compounds were synthesized. Each pair differed from the others only in the stereochemistry of the bicyclic camphor ring."}}, "note": "Residues, ends and D or L forms follow the SMILES beside them."}
{"compound": "CC12CCC(C1)C(C)(C)C2OC(=O)C(NC(=O)C(N)CC(=O)O)c1ccccc1", "note": "(stereo not drawn) [2R, exo-fenchyl ester]", "values": [{"measurement": "sweetness intensity (in words)", "setting": "[1]; prior art fenchyl esters", "value": "high sweetness intensities"}]}
{"compound": "COC(=O)C(CC1CC2CCC1C2)NC(=O)[C@@H](N)CC(=O)O", "note": "(stereo partly drawn) [(R,S)endo norbornyl, L-Aspartyl-D,L-(endo-R,S-norbornyl)-3-alanine methyl ester]", "values": [{"measurement": "Sweetness (x sucrose w/w)", "setting": "[2]", "value": 290, "unit": "x sucrose w/w"}]}
{"compound": "COC(=O)C(CC1CC2CCC1C2)NC(=O)C(N)CC(=O)O", "note": "[(R,S)exo norbornyl]", "values": [{"measurement": "Sweetness (x sucrose w/w)", "setting": "[2]", "value": 200, "unit": "x sucrose w/w"}]}
{"compound": "COC(=O)C(NC(=O)[C@@H](N)CC(=O)O)C(=O)OC1C2(C)CCC(C2)C1(C)C", "note": "(stereo partly drawn) [L-aspartyl-2-amino malonyl methyl fenchyl diester]", "values": [{"measurement": "times sweeter than sucrose", "setting": "[1]", "value": "20,000 times sweeter than sucrose"}]}
{"compound": "COC(=O)[C@H](Cc1ccccc1)NC(=O)[C@@H](N)CC(=O)O", "note": "[L-aspartyl-L-phenylalanine methyl ester] (H-Asp-Phe-OMe)", "values": [{"measurement": "times sweeter than sucrose", "setting": "[1]", "value": "about 180 times sweeter than sucrose"}]}
{"compound": "COC(=O)C(CC1CC2CCC1C2)NC(=O)[C@@H](N)CC(=O)O", "note": "(stereo partly shown) [norbornyl]", "values": [{"measurement": "Sweetness (x sucrose w/w)", "setting": "[2]", "value": 225, "unit": "x sucrose w/w"}]}
{"compound": "(alpha-carboxy) glycyl-3-norbornylalanine methyl ester", "values": [{"measurement": "sweetness (in words)", "setting": "[2]; formula 4 tasted in aqueous solution", "value": "intensely sweet"}]}
